These results are taken from ChEMBL document CHEMBL4376829, “Discovery and biological evaluation of vinylsulfonamide derivatives as highly potent, covalent TEAD autopalmitoylation inhibitors” (Eur J Med Chem, 2019).

The structures appear in SMILES notation. Activity calls are given as the source filed them. No cut-off for these calls is given here.

For experiment [1], the target named is T1, Transcriptional enhancer factor TEF-3 (Homo sapiens, UniProt Q15561). Nature of the experiment: Inhibition of N-terminal His6 tagged human TEAD4-YBD (217 to 434 residues) expressed in Escherichia coli C43 (DE3) cells assessed as reduction in autopalmitoylation at 800 nM preincubated for 2 hrs followed by palmitoyl alkyne-coenzyme A addition and measured after 30 mins by immunoblot analysis relative to control.
T1 sequence (Q15561 whole entry, the tested form may be a part): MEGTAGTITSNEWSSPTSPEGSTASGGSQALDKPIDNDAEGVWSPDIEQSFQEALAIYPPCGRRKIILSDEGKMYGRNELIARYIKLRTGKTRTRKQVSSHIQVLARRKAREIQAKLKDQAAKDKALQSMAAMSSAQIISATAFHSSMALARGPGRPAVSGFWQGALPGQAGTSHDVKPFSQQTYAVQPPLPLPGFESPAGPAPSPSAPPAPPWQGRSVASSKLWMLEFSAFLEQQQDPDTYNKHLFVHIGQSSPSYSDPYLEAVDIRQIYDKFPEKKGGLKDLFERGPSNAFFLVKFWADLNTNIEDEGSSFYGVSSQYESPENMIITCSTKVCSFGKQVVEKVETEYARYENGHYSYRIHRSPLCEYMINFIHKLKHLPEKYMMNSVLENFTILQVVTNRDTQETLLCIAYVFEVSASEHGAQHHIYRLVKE

The target of experiment [2] is T1, Transcriptional enhancer factor TEF-3. Nature of the experiment: Inhibition of N-terminal His6 tagged human TEAD4-YBD (217 to 434 residues) expressed in Escherichia coli C43 (DE3) cells assessed as reduction in autopalmitoylation at 200 nM preincubated for 2 hrs followed by palmitoyl alkyne-coenzyme A addition and measured after 30 mins immunoblot analysis relative to control. On the technique in general: A western blot detects proteins with antibodies after separation by electrophoresis.

Experiment [3] shares this target. Nature of the experiment: Inhibition of N-terminal His6-tagged human TEAD4 YAP binding domain (217 to 434 residues) expressed in Escherichia coli C43 (DE3) cells assessed reduction in autopalmitoylation preincubated for 2 hrs followed by palmitoyl alkyne coenzyme A addition and measured after 30 mins by immunoblot analysis.
For experiment [4] the target is unchanged. The experiment is described as follows: Binding affinity to N-terminal His6 tagged human TEAD4 (217 to 434 residues) expressed in Escherichia coli C43 (DE3) cells incubated for 30 mins by isothermal Titration Calorimetry. In general terms: Isothermal titration calorimetry measures the heat released or taken up as one component is titrated into another.

The target is the same in experiment [5]. Nature of the experiment: Binding affinity to N-terminal His6 tagged human TEAD4-YBD (217 to 434 residues) expressed in Escherichia coli C43 (DE3) cells by SPR analysis.
The target is the same in experiment [6]. Nature of the experiment: Inhibition of N-terminal His6 tagged human TEAD4-YBD (217 to 434 residues) expressed in Escherichia coli C43 (DE3) cells assessed as reduction in autopalmitoylation at 50 uM preincubated for 2 hrs followed by palmitoyl alkyne-coenzyme A addition and measured after 30 mins by immunoblot analysis.
Experiment [7] has the same target. The experiment is described as follows: Binding affinity to TEAD4 (unknown origin) assessed as change in melting temperature by fluorescence based thermal shift assay.
Experiment [8] has the same target. Nature of the experiment: Binding affinity to TEAD4 (unknown origin) assessed as induction of protein folding by SYPRO-dye based thermal shift assay.
Experiment [9] has the same target. The experiment is described as follows: Binding affinity to TEAD4 (unknown origin) assessed as change in melting temperature at protein to compound ratio of 1:10 by SYPRO orange dye based thermal shift assay.
The target is the same in experiment [10]. Nature of the experiment: Binding affinity to N-terminal His6 tagged human TEAD4 (217 to 434 residues) expressed in Escherichia coli C43 (DE3) cells at 200 uM by STD NMR spectral analysis.
The target is the same in experiment [11]. The experiment is described as follows: Competitive binding affinity to N-terminal His6 tagged human TEAD4 (217 to 434 residues) expressed in Escherichia coli C43 (DE3) cells at 200 uM in presence of palmitoyl CoA by CPMG NMR spectral analysis.
The target is the same in experiment [12]. Nature of the experiment: Binding affinity to N-terminal His6 tagged human TEAD4 (217 to 434 residues) expressed in Escherichia coli C43 (DE3) cells at 200 uM by CPMG NMR spectral analysis.
Experiment [13] shares this target. The experiment is described as follows: Binding affinity to TEAD4 (unknown origin) assessed as change in melting temperature at protein to compound ratio of 1:40 by SYPRO orange dye based thermal shift assay.

Consider `C=CS(=O)(=O)Nc1ccc(C(=O)Nc2ccc3c(c2)CCNC3)cc1`, for which the inhibition – broadly, the relative decrease from the control value, in per cent – was 10.1% in [1] and 0.3% in [2].

With `O=C(O)c1ccccc1Nc1cccc(C(F)(F)F)c1` [FLUFENAMIC ACID], in experiment [3], the IC50 (as a rule, the midpoint of a concentration-inhibition curve) was determined as 54 µM and the inhibition result was “Dose-dependent effect”. Besides, in experiment [4], the Kd – broadly, the free concentration of one partner at which half of the binding sites on the other are occupied at equilibrium, for simple one-to-one binding – is 73 µM. Further, the Kd in experiment [5] was determined as 84 µM.

`C=CS(=O)(=O)Oc1ccc(Oc2ccccc2)cc1`: the values for the inhibition in experiment [1] and in [2] were 94.8% and 62.2%, respectively.

With `C=CS(=O)(=O)Nc1ccccc1Oc1ccccc1`, the inhibition is 25.2% in experiment [1] and -4.1% in experiment [2].

As for `C=CS(=O)(=O)Nc1ccc(Cc2ccc3ccccc3c2)c(OC2CCNCC2)c1`, the results for the inhibition in experiment [1] and in experiment [2] were 6.5% and 1.2%, respectively. In addition, the inhibition result in experiment [6] was “Active”.

In the case of `C=CS(=O)(=O)Nc1ccc(OCc2ccccc2)cc1`, the values for the inhibition in experiment [1] and in experiment [2] were 52.5% and 21%, respectively.

As to `C=CS(=O)(=O)Nc1ccc(Cc2ccc3ccccc3c2)c(O)c1`, the inhibition in [1] came to 92.1%; in [2] it was 44.3%.

Regarding `C=CS(=O)(=O)Nc1ccc2c(c1)CCN(C(=O)c1ccccc1)C2`, the inhibition came out at 25.4% in experiment [1] and 5.4% in experiment [2].

As for `C=CS(=O)(=O)Nc1ccc(NC(=O)c2ccc3ccccc3c2)cc1`, the inhibition in experiment [1] was determined as 35%; in [2] it was 15.6%.

For `C=CS(=O)(=O)Nc1ccc2ccccc2c1`, the inhibition stood at 1.1% in experiment [1] and 8.4% in [2].

On to `C=CS(=O)(=O)Nc1ccc(Cc2ccc3ccc(O)cc3c2)cc1`, for which the inhibition in [1] turned out to be 82.5%; in experiment [2], 18.9%.

For the compound `Cc1ccc(Oc2ccc(N)cc2)cc1`, the Activity entry in [7] and in [8] was “Dose-dependent effect” throughout. Also, the figures for the thermal shift (ΔTm) in [9] and in experiment [13] were 3.1 °C and 4.5 °C, respectively. For the same compound, the IC50 in experiment [3] was determined as 32 µM. Besides, the inhibition entry in experiment [3] was “Dose-dependent effect”. Moreover, the outcome in [10], in experiment [11] and in [12] was Active. Further, the Kd in experiment [5] came to 41 µM.

Turning to `C=CS(=O)(=O)Nc1ccc(Cc2ccccc2)cc1`, the inhibition turned out to be 92.5% in experiment [1] and 59.2% in experiment [2].
